In patent publication US20230226198A1, “Artemisinin Derivatives” (DA ZEN THERANOSTICS, INC., priority 2019, published 2023):
Entries after “also recorded” stand apart in the source; their conditions may differ. Where two headings read alike, the source gives them in different places.

Legend:
[1] = test system: Caki-1 cells (human clear cell renal cell carcinoma cells); assay: MTT cell viability / IC50 assay, Caki-1; type: cell-based
Protocol: Cell culture: In the following examples, unless otherwise specified, all cell lines are purchased from American Type Culture Collection and cultured in American Type Culture Collection (ATCC)-recommended media, with fetal bovine serum (FBS) to a final concentration of 10% and 1× penicillin/streptomycin at 37° C. with 5% CO2 in a cell culture incubator, unless otherwise specified. Unless otherwise specified, culture is 2D. Where culture is 3D, low attachment plates are used, with the same media. C4-2B (ATCC® CRL-3315™, human prostate cancer cells of epithelial morphology) parental cell line and drug-resistant cells derived therefrom) are cultured in RPMI-1640 with 10% FBS. MDVR cells (an Enzalutamide-resistant variety of C4-2B prostate cancer cells formed as described below) are cultured as indicated for the parental C4-2B cells. Caki-1 cells (human clear cell renal cell carcinoma cells) are cultured in ATCC-formulated McCoy's 5a Medium Modified (ATCC Catalog No. 30-2007) with 10% FBS. PC3 cells (ATCC® CRL-1435™, a human prostate cancer cell line of epithelial morphology initiated from a bone metastasis of a grade IV prostatic adenocarcinoma) are cultured in F-12K with 10% FBS. 22RV1 Prostate Cancer (PC) cells (ATCC® CRL-2505™, a human prostate carcinoma cell line of epithelial morphology) are cultured in RPMI-1640 with 10% FBS. DU145 cells (ATCC® HTB-81™, a human cell line derived from a prostate-originating brain metastase, not detectably hormone sensitive, not expressing prostate antigen; forms adenocarcinoma grade II in nude mice) are cultured in ATCC-formulated Eagle's Minimum Essential Medium (EMEM, Catalog No. 30-2003). H446 cells (ATCC® HTB-171™, a human small cell carcinoma SC lung cancer (SCLC) cell line derived from a metastatic site) are cultured in RPMI-1640 with 10% FBS. H358 cells (ATCC® CRL-5807™, a human non-small cell lung cancer (NSCLC) cell line that expresses protein and RNA of SP-A, the major lung surfactant associated protein, and produces tumors in athymic nude mice) are cultured in RPMI-1640 Medium with 10% FBS. BxPC3 cells (ATCC® CRL-1687™, an adenocarcinoma-derived pancreatic cancer cell line that expresses pancreas cancer specific antigen and carcinoembryonic antigen and forms tumors in nude mice) are cultured in RPMI-1640 with 10% FBS.
Example 1: A cell assay is performed exposing cells cultured as described above to various drugs indicated below for 24 hours unless otherwise indicated. Each of the cell lines is treated either with a THAD (e.g. DZ-DHA-ether, MI-148-bis-DHA), or for comparison, with the DHA mono-ester “DZ-DHA”; alternatively/additionally, DZ1 and/or unconjugated DHA may serve as comparants. For each cell line, the IC50 is determined for each drug in concentrations from 0 to 100 μM. […] In the controls (not shown in the figures), the cells are exposed to DMSO (vehicle) for a final concentration that equals the highest concentration of the drug tested, to a maximum concentration less than 0.1% v/v. 4 hours before culture end/SDS addition, 10 μL MTT (3-(4,5-Dimethyl-2-thiazolyl)-2,5-diphenyl-2H-tetrazolium bromide, Sigma-Aldrich) is added to wells containing the cells. At the end of culture, 100 μl 10% SDS is added and then the plate containing the cells is placed in a 37° C. cell culture incubator for 8 hours. The absorbance density of the supernatant is read on a 96-well microplate reader at wavelength 595 nm. The results of Caki-1 and MDRV are indicated in the table below along with preliminary results for further cancer cell lines (including, e.g., C4-2B, Abi-R, PC3, 22Rv1, DU145, H358, H446, BxPC3), and the corresponding curves are shown in FIG. 2A (Caki-1) and FIG. 2B (MDVR).

[2] = test system: pATM, γH2AX, cytochrome c; assay: Western blot analysis of DNA damage and mitochondrial markers; type: cell-based
Protocol: The western blot analysis is performed as follows: Protein lysates (25 ug/sample) are separated by electrophoresis into the SDS-PAGE, which is then transferred to a nitrocellulose membrane for immunoblotting analysis. The protein membranes are blocked with 5% non-fat milk in PBS at room temperature (RT) for 1 h, followed by incubation with primary antibodies against proteins of interests diluted in 2% BSA in Phosphate Buffered Saline with Tween-20 (PBST) at 1:500 or 1:1000 at 4° C. overnight. The membranes are washed with PBST three times at 5 min for each wash on an orbital shaker, and then incubated with secondary antibodies against the species of the primary antibodies (i.e. anti-mouse or anti-rabbit) diluted in 5% non-fat milk in PBST for 1 h at RT with shaking. After the secondary antibody, the membranes are washed three times for 5 min each, and subjected to chemiluminescence imaging with ECL substrates (e.g. Pierce ECL Plus™, Thermo Fisher Scientific), to detect the protein bands of interest. Preliminary experiments indicate that the THAD as described herein may have an increased effect compared to DZ3a.

C4-2 MDVR cells = assay: JC-1 staining, mitochondrial membrane potential by flow cytometry; type: cell-based, human; details: 5 uM, 16 h
Protocol: Example 5D: JC-1 staining and measuring JC-1 fluorescence is performed by flow cytometry to detect the ratio of green and red fluorescence. C4-2 MDVR cells are treated with vehicle (negative control), DHA (5 uM), and DZ-003 (5 uM) for 16 h, followed by JC-1 staining (2 uM) at 37° C. for 30 min, to determine the mitochondrial membrane potential by flow cytometry where JC-1 remains as a monomer in the cytosol that emits green fluorescence as an indication of depolarized membrane potential, and JC-1 forms aggregates in intact mitochondria that emits red fluorescence. […] Preliminary experiments indicate that the THAD as described herein may provide a similar or increased effect.

MDVR cells [3] = assay: C11-BODIPY (lipid peroxidation) and MitoSox (mitochondrial ROS) flow cytometry; type: cell-based, human; details: 8 h
Protocol: Example 5F: Cancer cells (here MDVR) are treated with DZ1, DHA and DZ-003 for 8 h, followed by C11-BODIPY staining for 30 min at 37° C. (lipid peroxidation) or MitoSox staining for 10 min at 37° C. […] Flow cytometry analysis is performed as described in example 5E above. […] Preliminary experiments indicate that the THAD as described herein may provide a similar or increased effects.

MDVR cells [4] = assay: Monobromobimane (mBBr) staining, cellular GSH levels; type: cell-based, human; details: 8 h, listed as DZ-003
Protocol: Example 5G: Cancer cells (here MDVR) are treated with DZ1, DHA and/or a THAD (e.g. 6 uM each) for 8 h, followed by monobromobimane (mBBr) staining at 40 uM for 30 min at 37° C., and analyzed with flow cytometry to determine the cellular GSH levels. Flow cytometry analysis of mBBr fluorescence (green) is performed as described in example 5E above. Preliminary experiments indicate that the THAD as described herein may provide a similar or increased effect.

For C[C@@H]1CC[C@H]2[C@@H](C)C(OC(=O)CCCCCN3/C(=C/C=C4\CCCC(/C=C/C5=[N+](CCCCS(=O)(=O)[O-])c6ccccc6C5(C)C)=C4Cl)C(C)(C)c4ccccc43)O[C@@H]3OC4(C)CC[C@@H]1[C@]32OO4 (stereo in doubt) [DZ3a], the IC50 ([1]; Caki-1, 24 hours, relative IC50, read-out: IC50) was 12.3 µM, the IC50 ([1]; Caki-1, unit inferred, read-out: IC50 (FIG. 2A description)) was greater than 12 µM and the “DNA damage (levels of pATM and γH2AX)” value [2] was “induces DNA damage”. The “depletion of mitochondria (levels of cytochrome c)” value [2] was “depletes mitochondria”, the “mitochondrial membrane potential (JC-1 fluorescence)” value (C4-2 MDVR cells) was “induces depolarization of mitochondrial membrane potential” and the “lipid peroxidation (C11-BODIPY fluorescence)” value (MDVR cells [3]) was “induces lipid peroxidation”. For the same compound, the “cellular GSH levels (mBBr fluorescence)” value (MDVR cells [4]) was “decreases cellular antioxidant GSH levels; also recorded: Decreased cellular GSH levels”.
